# Laboratory results as given in ChEMBL document CHEMBL5230095, “Advances in research of spirodienone and its derivatives: Biological activities and synthesis methods” (Eur J Med Chem, 2020).
# System: not listed separately
# Test: (§1) Cytotoxicity against MDCK cells
# Type: toxicity, cell-based, Canis lupus familiaris
# Details: dog, MDCK cells; read-out: TC50 (the source's name)
row,SMILES,CC50 [µM]
1,COC1=CC(=O)c2ccc(=O)oc2[C@@]12[C@H](C=C(C)C)C[C@]1(C)CC(C)=C[C@H](c3c(OC)cc(OC)c4ccc(=O)oc34)[C@H]1[C@@H]2c1c(OC)cc(OC)c2ccc(=O)oc12,77.6

# System: MDCK
# Test: as §1
# Type: toxicity, cell-based, Canis lupus familiaris
# Details: dog, mdck; read-out: TC50 (the source's name)
row,SMILES,CC50 [µM]
1,COC1=CC(=O)c2ccc(=O)oc2C12C(C=C(C)C)CC1(C)CC(C)=CC(c3c(OC)cc(OC)c4ccc(=O)oc34)C1C2c1c(OC)cc(OC)c2ccc(=O)oc12 (racemic; form 2),25.9
2,COC1=CC(=O)c2ccc(=O)oc2C12C(C=C(C)C)CC1(C)CC(C)=CC(c3c(OC)cc(OC)c4ccc(=O)oc34)C1C2c1c(OC)cc(OC)c2ccc(=O)oc12 (racemic; form 1),6.42

# System: not listed separately
# Test: in vitro
# Details: dog, MDCK cells, TI
# Description: Therapeutic index, ratio of TC50 for MDCK cells to IC50 for antiviral activity against influenza A virus (A/Hanfang/359/95(H3N2))
row,SMILES,selectivity ratio
1,COC1=CC(=O)c2ccc(=O)oc2[C@@]12[C@H](C=C(C)C)C[C@]1(C)CC(C)=C[C@H](c3c(OC)cc(OC)c4ccc(=O)oc34)[C@H]1[C@@H]2c1c(OC)cc(OC)c2ccc(=O)oc12,6.9

# System: not listed separately
# Test: Antiinflammatory activity in human polymorphonuclear neutrophils assessed as reduction in LPS-stimulated TNFalpha release
# Type: functional, Polymorphonuclear neutrophil
# Set-up: scale not given: the % may be the effect or the level left
# Details: not given
row,SMILES,Activity [%]
1,O=C1C=CC2(C=C1)CCc1cc(O)cc(O[C@@H]3C[C@H](CO)[C@@H](O)[C@H](O)[C@H]3O)c12,38
2,O=C1C=CC2(C=C1)CCc1cc(O)cc(O[C@@H]3C[C@H](CO[C@@H]4OC[C@](O)(COC(=O)/C=C/c5ccc(O)c(O)c5)[C@@H]4O)[C@@H](O)[C@H](O)[C@H]3O)c12,20
3,O=c1c(O)c(-c2ccc(O)c(O)c2)oc2cc(O)cc(O)c12 [QUERCETIN],28

# System: Staphylococcus aureus
# Test: Antibacterial activity against Staphylococcus aureus
# Type: functional
# Details: not given
row,SMILES,MIC [µg/mL]
1,CC(C)=CCC[C@]1(C)OC2=C(Cl)C(=O)c3c(O)cc(O)cc3[C@@]23CC(=C(C)C)C[C@@H]13,1
2,C/C(=C\C=C/[C@@H](C)/C=C(\C)C(=O)C1[C@@H]2[C@@H](CC(C)C)C(=O)N[C@@]23C[C@]1(O)c1cc(O)c(C)cc1C3=O)C(=O)O (some centres not stated),31.2
3,CC1=C/[C@@H](C)/C=C(\C)[C@]2(O)[C@H](C)[C@@H]3[C@@H](C(C)C)C(=O)N[C@]34C(=O)c3cc(C)c(O)c(c3C(=O)[C@@H]42)C(=O)\C(C)=C\1,31.2
4,COc1cc(O)cc2c1C(=O)C(Cl)=C1O[C@@](C)(CCC=C(C)C)[C@@H]3CC(=C(C)C)C[C@@]123,> 64
5,C/C1=C/[C@@H](C)/C=C(\C)C(=O)[C@@H](C)[C@@H]2[C@@H](C)C(=O)N[C@@]23C[C@]24O[C@](C)(C(=O)c5c(O)c(C)cc(c52)C3=O)C14 (some centres not stated),62.5
6,CC(C)=CCC[C@]1(C)OC2=C(Cl)C(=O)C=C[C@@]23CC(=C(C)C)C[C@@H]13,> 64

# System: A549
# Test: Antiproliferative activity against human A549 cells
# Type: functional, cell-based
# Details: not given
row,SMILES,IC50 [µM]
1,O=C1C=CC2(C=C1)OCC(=O)N2c1nc(-c2cccs2)nn1-c1ccccc1,0.0252

# System: MDA-MB-231
# Test: Antiproliferative activity against human MDA-MB-231 cells
# Type: functional, cell-based
# Details: not given
row,SMILES,IC50 [µM]
1,Cc1cc(C)c2c(c1)OCC(=O)N2c1nc(-c2ccc(Cl)cc2Cl)nn1-c1ccccc1,2.85
2,O=C1C=CC2(C=C1)OCC(=O)N2c1nc(-c2cccs2)nn1-c1ccccc1,0.0008

# System: Influenza A virus
# Test: microbe, parasite or virus in culture
# Details: H3N2, MDCK
# Description: Antiviral activity against influenza A virus (A/Hanfang/359/95(H3N2)) infected in MDCK cells
row,SMILES,IC50 [µM]
1,COC1=CC(=O)c2ccc(=O)oc2[C@@]12[C@H](C=C(C)C)C[C@]1(C)CC(C)=C[C@H](c3c(OC)cc(OC)c4ccc(=O)oc34)[C@H]1[C@@H]2c1c(OC)cc(OC)c2ccc(=O)oc12,11.1
2,COC1=CC(=O)c2ccc(=O)oc2C12C(C=C(C)C)CC1(C)CC(C)=CC(c3c(OC)cc(OC)c4ccc(=O)oc34)C1C2c1c(OC)cc(OC)c2ccc(=O)oc12 (racemic; form 1),3.13

# System: MCF7
# Test: Antiproliferative activity against human MCF7 cells
# Type: functional, cell-based
# Details: not given
row,SMILES,IC50 [µM]
1,COC(=O)[C@@]1(C2C=CC(=O)C=C2)c2cc(O)cc(O)c2[C@@H](c2ccc(O)cc2)C(=O)c2cc(O)cc(O)c21,28
2,O=C1C=CC2(C=C1)OCC(=O)N2c1nc(-c2cccs2)nn1-c1ccccc1,0.00411
3,O=C1C=CC(=C2C(=O)c3cc(O)cc4c3[C@@](c3ccc(O)cc3)(C(=O)O4)c3cc(O)cc(O)c32)C=C1,99

# System: SF-268
# Test: Antiproliferative activity against human SF-268 cells
# Type: functional, cell-based
# Details: not given
row,SMILES,IC50 [µM]
1,COC(=O)[C@@]1(C2C=CC(=O)C=C2)c2cc(O)cc(O)c2[C@@H](c2ccc(O)cc2)C(=O)c2cc(O)cc(O)c21,29.2
2,O=C1C=CC(=C2C(=O)c3cc(O)cc4c3[C@@](c3ccc(O)cc3)(C(=O)O4)c3cc(O)cc(O)c32)C=C1,> 100

# System: NCI-H460
# Test: Antiproliferative activity against human NCI-H460 cells
# Type: functional, cell-based
# Details: not given
row,SMILES,IC50 [µM]
1,COC(=O)[C@@]1(C2C=CC(=O)C=C2)c2cc(O)cc(O)c2[C@@H](c2ccc(O)cc2)C(=O)c2cc(O)cc(O)c21,32.7
2,O=C1C=CC(=C2C(=O)c3cc(O)cc4c3[C@@](c3ccc(O)cc3)(C(=O)O4)c3cc(O)cc(O)c32)C=C1,> 100

# System: HeLa
# Test: Antiproliferative activity against human HeLa cells
# Type: functional, cell-based
# Details: not given
row,SMILES,IC50 [µM]
1,COC(=O)[C@@]1(C2C=CC(=O)C=C2)c2cc(O)cc(O)c2[C@@H](c2ccc(O)cc2)C(=O)c2cc(O)cc(O)c21,25.7
2,Cc1cc(C)c2c(c1)OCC(=O)N2c1nc(-c2ccc(Cl)cc2Cl)nn1-c1ccccc1,25.2
3,O=C1C=CC2(C=C1)OCC(=O)N2c1nc(-c2cccs2)nn1-c1ccccc1,0.0453
4,O=C1C=CC(=C2C(=O)c3cc(O)cc4c3[C@@](c3ccc(O)cc3)(C(=O)O4)c3cc(O)cc(O)c32)C=C1,> 100

# Biological target: DNA polymerase alpha catalytic subunit (Homo sapiens, UniProt P09884)
# Test: Inhibition of DNA polymerase alpha (unknown origin)
# Details: not given
# Sequence of DNA polymerase alpha catalytic subunit (P09884 whole entry): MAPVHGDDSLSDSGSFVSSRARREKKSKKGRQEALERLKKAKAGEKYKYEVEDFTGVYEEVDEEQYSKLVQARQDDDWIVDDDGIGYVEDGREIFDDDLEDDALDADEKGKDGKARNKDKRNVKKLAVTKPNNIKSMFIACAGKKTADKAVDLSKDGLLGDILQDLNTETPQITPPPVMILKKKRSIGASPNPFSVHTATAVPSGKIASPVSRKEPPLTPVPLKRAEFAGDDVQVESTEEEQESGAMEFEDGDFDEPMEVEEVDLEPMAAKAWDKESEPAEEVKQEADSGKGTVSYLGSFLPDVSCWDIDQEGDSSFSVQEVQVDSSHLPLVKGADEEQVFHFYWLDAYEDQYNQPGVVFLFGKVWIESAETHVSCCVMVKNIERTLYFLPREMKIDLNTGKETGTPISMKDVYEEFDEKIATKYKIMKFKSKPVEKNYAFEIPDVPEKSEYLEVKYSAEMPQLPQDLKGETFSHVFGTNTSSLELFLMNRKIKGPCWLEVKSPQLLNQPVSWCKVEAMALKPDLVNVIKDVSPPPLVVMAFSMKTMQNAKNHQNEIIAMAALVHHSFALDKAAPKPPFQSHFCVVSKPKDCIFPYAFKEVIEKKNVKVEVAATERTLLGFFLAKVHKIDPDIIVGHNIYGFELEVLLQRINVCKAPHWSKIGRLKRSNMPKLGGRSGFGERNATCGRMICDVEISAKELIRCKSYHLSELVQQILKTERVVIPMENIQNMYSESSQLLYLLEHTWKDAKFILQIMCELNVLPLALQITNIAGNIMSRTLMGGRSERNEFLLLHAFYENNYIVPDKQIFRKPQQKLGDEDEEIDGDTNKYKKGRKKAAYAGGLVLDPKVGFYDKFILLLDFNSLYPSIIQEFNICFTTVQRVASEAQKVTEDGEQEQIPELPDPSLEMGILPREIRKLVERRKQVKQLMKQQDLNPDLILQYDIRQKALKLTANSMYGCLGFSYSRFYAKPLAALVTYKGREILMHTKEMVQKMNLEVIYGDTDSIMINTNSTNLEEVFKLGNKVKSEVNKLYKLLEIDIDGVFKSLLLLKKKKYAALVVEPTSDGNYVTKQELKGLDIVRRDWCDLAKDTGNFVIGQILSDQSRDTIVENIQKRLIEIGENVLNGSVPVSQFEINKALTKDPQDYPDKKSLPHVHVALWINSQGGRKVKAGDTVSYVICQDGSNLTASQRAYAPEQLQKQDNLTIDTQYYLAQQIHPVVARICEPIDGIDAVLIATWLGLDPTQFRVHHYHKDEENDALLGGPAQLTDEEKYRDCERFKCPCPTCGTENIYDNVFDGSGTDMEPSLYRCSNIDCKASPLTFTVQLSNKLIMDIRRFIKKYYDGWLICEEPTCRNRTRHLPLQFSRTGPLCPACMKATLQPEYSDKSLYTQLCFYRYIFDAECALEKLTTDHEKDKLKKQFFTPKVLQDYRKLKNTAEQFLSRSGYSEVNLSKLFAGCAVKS
row,SMILES,IC50 [µM]
1,COc1cc(O)c2c(c1)C1(C=C(OC(C)=O)C(=O)C=C1C)OC2=O (configuration not stated),28
2,COc1cc(OC(C)=O)c2c(c1)C1(C=C(OC(C)=O)C(=O)C=C1C)OC2=O (configuration not stated),0.68

# System: KB
# Test: Antiproliferative activity against human KB cells
# Type: functional, cell-based
# Details: not given
row,SMILES,IC50 [µM]
1,COC(=O)[C@@]1(C2C=CC(=O)C=C2)c2cc(O)cc(O)c2[C@@H](c2ccc(O)cc2)C(=O)c2cc(O)cc(O)c21,33.2
2,O=C1C=CC(=C2C(=O)c3cc(O)cc4c3[C@@](c3ccc(O)cc3)(C(=O)O4)c3cc(O)cc(O)c32)C=C1,> 100

# System: not listed separately
# Test: Antiinflammatory activity in human polymorphonuclear neutrophils assessed as reduction in LPS-stimulated IL-8 release
# Type: functional, Polymorphonuclear neutrophil
# Set-up: scale not given: the % may be the effect or the level left
# Details: not given
row,SMILES,Activity [%]
1,O=C1C=CC2(C=C1)CCc1cc(O)cc(O[C@@H]3C[C@H](CO)[C@@H](O)[C@H](O)[C@H]3O)c12,70
2,O=C1C=CC2(C=C1)CCc1cc(O)cc(O[C@@H]3C[C@H](CO[C@@H]4OC[C@](O)(COC(=O)/C=C/c5ccc(O)c(O)c5)[C@@H]4O)[C@@H](O)[C@H](O)[C@H]3O)c12,28
3,O=c1c(O)c(-c2ccc(O)c(O)c2)oc2cc(O)cc(O)c12 [QUERCETIN],18

# System: Enterococcus faecalis
# Test: Antibacterial activity against Enterococcus faecalis
# Type: functional
# Details: not given
row,SMILES,MIC [µg/mL]
1,CC(C)=CCC[C@]1(C)OC2=C(Cl)C(=O)c3c(O)cc(O)cc3[C@@]23CC(=C(C)C)C[C@@H]13,1
2,COc1cc(O)cc2c1C(=O)C(Cl)=C1O[C@@](C)(CCC=C(C)C)[C@@H]3CC(=C(C)C)C[C@@]123,> 64
3,CC(C)=CCC[C@]1(C)OC2=C(Cl)C(=O)C=C[C@@]23CC(=C(C)C)C[C@@H]13,> 64

# System: not listed separately
# Test: Antiinflammatory activity in human polymorphonuclear neutrophils assessed as reduction in LPS-stimulated IL-1beta release
# Type: functional, Polymorphonuclear neutrophil
# Set-up: scale not given: the % may be the effect or the level left
# Details: not given
row,SMILES,Activity [%]
1,O=C1C=CC2(C=C1)CCc1cc(O)cc(O[C@@H]3C[C@H](CO)[C@@H](O)[C@H](O)[C@H]3O)c12,105
2,O=C1C=CC2(C=C1)CCc1cc(O)cc(O[C@@H]3C[C@H](CO[C@@H]4OC[C@](O)(COC(=O)/C=C/c5ccc(O)c(O)c5)[C@@H]4O)[C@@H](O)[C@H](O)[C@H]3O)c12,90
3,O=c1c(O)c(-c2ccc(O)c(O)c2)oc2cc(O)cc(O)c12 [QUERCETIN],4

# Biological target: Neutrophil elastase (Homo sapiens, UniProt P08246)
# Test: Inhibition of human neutrophil elastase activity assessed as reduction in elastase release
# Details: not given
# Sequence of Neutrophil elastase (P08246 whole entry): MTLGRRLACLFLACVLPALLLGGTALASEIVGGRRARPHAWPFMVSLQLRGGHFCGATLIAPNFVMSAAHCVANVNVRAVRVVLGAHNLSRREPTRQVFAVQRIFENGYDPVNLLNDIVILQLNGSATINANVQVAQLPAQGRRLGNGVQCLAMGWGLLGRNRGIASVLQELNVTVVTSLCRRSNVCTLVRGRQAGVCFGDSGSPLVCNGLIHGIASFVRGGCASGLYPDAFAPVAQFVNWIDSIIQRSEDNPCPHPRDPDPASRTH
row,SMILES,IC50 [µM]
1,COc1cc2c(c3c1CCC(c1ccccc1)O3)C1C3C(c4ccc(O)c(C)c4OC)C(C(O)(OC)c4ccccc4)C14C(C=CC(=O)C4OC)OC3(c1ccccc1)O2 (configuration not stated),6.53

# System: Streptococcus pneumoniae
# Test: Antibacterial activity against Streptococcus pneumoniae
# Type: functional
# Details: not given
row,SMILES,MIC [µg/mL]
1,CC(C)=CCC[C@]1(C)OC2=C(Cl)C(=O)c3c(O)cc(O)cc3[C@@]23CC(=C(C)C)C[C@@H]13,8
2,COc1cc(O)cc2c1C(=O)C(Cl)=C1O[C@@](C)(CCC=C(C)C)[C@@H]3CC(=C(C)C)C[C@@]123,> 64
3,CC(C)=CCC[C@]1(C)OC2=C(Cl)C(=O)C=C[C@@]23CC(=C(C)C)C[C@@H]13,> 64

# System: Influenza A virus
# Test: not given
# Details: mdck
row,SMILES,IC50 [µM]
1,COC1=CC(=O)c2ccc(=O)oc2C12C(C=C(C)C)CC1(C)CC(C)=CC(c3c(OC)cc(OC)c4ccc(=O)oc34)C1C2c1c(OC)cc(OC)c2ccc(=O)oc12 (racemic; form 2),2.87
